From US7879887B2, “α-amino acid derivatives and medicaments containing the same as an active ingredient” (Nissan Chemical Industries, Ltd., priority 2006, dated 2011)

Columns and labels:
[1] = tested on: colon carcinoma cell line SW620; assay: Cell proliferation inhibitory activity, SW620; format: cell-based, human; details: Homo sapiens, SW-620, 96 h, cells counted 4 days later with Cell Counting Kit-8
Procedure, shortened: (§1)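 Read-out: Cell Counting Kit-8 cell counts taken 4 days after cells in medium were added to graded test-substance concentrations. Incubation was at 37° C under 5% CO2. IC50 values were based on vehicle wells set to 0% inhibition and wells lacking compound and cells set to 100%.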

[2] = tested on: prostate cancer cell line DU 145; assay: Cell proliferation inhibitory activity, DU 145; format: cell-based, human; details: Homo sapiens, 96 h, cells counted 4 days later with Cell Counting Kit-8
Procedure, shortened: as §1

CDK1/Cyclin B complex = target: T1, CDK1/Cyclin B complex (Homo sapiens, UniProt P06493); assay: In vitro kinase assay, CDK1/Cyclin B complex; format: biochemical; details: recombinant protein (Upstate)
T1 construct: purchased Upstate Inc. 14-450
Procedure, shortened: (§2)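 Recombinant human enzymes assayed per supplier protocol. IC50 derived with compound-free wells set as 0% inhibition and compound- and enzyme-free wells as 100% inhibition.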

leukemia cell line KG-1a = assay: Cell proliferation inhibitory activity, KG-1a; format: cell-based; details: Homo sapiens, 96 h, cells counted 4 days later with Cell Counting Kit-8
Procedure, shortened: as §1

[3] = tested on: lung carcinoma cell line NCI-H460; assay: Cell proliferation inhibitory activity, NCI-H460; format: cell-based; details: Homo sapiens, 96 h, cells counted 4 days later with Cell Counting Kit-8
Procedure, shortened: as §1

Aurora A = target: T2, Aurora A (Homo sapiens, UniProt O14965); assay: In vitro kinase assay, Aurora A; format: biochemical; details: recombinant protein (Upstate)
T2 construct: purchased Upstate Inc. 14-511
T2 sequence (O14965 1-403): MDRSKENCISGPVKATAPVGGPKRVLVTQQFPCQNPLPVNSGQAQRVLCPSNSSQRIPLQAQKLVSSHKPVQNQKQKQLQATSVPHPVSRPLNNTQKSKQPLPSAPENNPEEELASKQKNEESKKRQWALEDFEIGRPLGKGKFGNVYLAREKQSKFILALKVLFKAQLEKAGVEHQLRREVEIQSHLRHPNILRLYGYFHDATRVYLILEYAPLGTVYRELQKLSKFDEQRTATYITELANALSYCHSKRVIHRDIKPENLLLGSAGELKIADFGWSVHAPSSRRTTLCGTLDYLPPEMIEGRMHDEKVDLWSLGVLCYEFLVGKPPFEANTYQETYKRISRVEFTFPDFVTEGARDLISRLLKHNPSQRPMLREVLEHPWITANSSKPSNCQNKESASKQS
Procedure, shortened: as §2

[4] = tested on: breast cancer cell line MDA-MB-231; assay: Cell proliferation inhibitory activity, MDA-MB-231; format: cell-based; details: Homo sapiens, 96 h, cells counted 4 days later with Cell Counting Kit-8
Experimental: (§3) Evaluations were carried out using colon carcinoma cell line SW620 (Cat. No. CCL-227), lung carcinoma cell line NCI-H460 (Cat. No. HTB-177), prostate cancer cell line DU 145 (Cat. No. HTB-81), breast cancer cell line MDA-MB-231 (Cat. No. HTB26) and leukemia cell line KG-1a (Cat. No. CCL-246.1) purchased from ATCC, pancreatic cancer cell line MIAPaCa-2 (Cat. No. CRL-1420) purchased from Dainippon Pharmaceutical, and ovarian cancer cell line IGROV1 received from the Netherland Cancer Institute. The cells were cultured under the conditions recommended by the supplier for each cell line, or with respect to IGROV1, according to the method described in Cancer Res. 59: 4559-4563, 1999. Cells suspended in media were added to solutions containing the test substances at various concentrations followed by culturing in a 5% CO2 incubator at 37° C. The numbers of cells were counted 4 days later with the Cell Counting Kit-8. IC50 values were calculated by assigning measured values in the case of not containing a test substance to an inhibition of 0%, and assigning measured values in the case of not containing a test substance or cells to an inhibition of 100%.

[5] = tested on: ovarian cancer cell line IGROV1; assay: Cell proliferation inhibitory activity, IGROV1; format: cell-based; details: Homo sapiens, IGROV-1, 96 h, cells counted 4 days later with Cell Counting Kit-8
Experimental: as §3

[6] = tested on: pancreatic cancer cell line MIAPaCa-2; assay: Cell proliferation inhibitory activity, MIAPaCa-2; format: cell-based; details: Homo sapiens, MIA PaCa-2, 96 h; cells counted 4 days later, Cell Counting Kit-8
Experimental: as §3

T1 sequence (P06493 whole entry): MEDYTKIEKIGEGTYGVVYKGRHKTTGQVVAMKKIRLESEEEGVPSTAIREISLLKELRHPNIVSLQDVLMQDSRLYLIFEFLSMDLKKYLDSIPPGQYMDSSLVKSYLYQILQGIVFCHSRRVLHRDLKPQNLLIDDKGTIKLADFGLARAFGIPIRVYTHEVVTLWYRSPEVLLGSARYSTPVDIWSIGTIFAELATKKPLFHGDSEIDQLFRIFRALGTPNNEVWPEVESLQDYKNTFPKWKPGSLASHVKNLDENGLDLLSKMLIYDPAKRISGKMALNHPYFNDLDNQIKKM
T1 sequence (P14635 whole entry partner): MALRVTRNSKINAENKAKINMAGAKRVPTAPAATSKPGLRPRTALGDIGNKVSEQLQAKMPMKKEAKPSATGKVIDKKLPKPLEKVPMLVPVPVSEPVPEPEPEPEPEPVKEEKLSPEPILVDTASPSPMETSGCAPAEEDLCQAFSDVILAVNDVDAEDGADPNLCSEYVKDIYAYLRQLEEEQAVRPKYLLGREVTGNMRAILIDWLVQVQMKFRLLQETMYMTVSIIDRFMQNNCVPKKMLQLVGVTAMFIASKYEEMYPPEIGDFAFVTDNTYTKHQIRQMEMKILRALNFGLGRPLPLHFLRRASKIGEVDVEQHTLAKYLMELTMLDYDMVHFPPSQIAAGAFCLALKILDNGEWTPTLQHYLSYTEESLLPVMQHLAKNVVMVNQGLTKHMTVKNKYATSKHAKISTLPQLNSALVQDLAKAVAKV

| Structure (SMILES) | IC50 [1] | IC50 [2] | IC50 (CDK1/Cyclin B complex) | IC50 (leukemia cell line KG-1a) | IC50 [3] | IC50 (Aurora A) | IC50 [4] | IC50 [5] | IC50 [6] |
| --- | --- | --- | --- | --- | --- | --- | --- | --- | --- |
| CNC(=O)c1cc(NC2(C(=O)Nc3nc4ccc5[nH]ncc5c4s3)CC2)ccc1Cl [compound 126] | 1500 nM | 3700 nM | 145 nM | < 100 nM | 4200 nM | 58 nM |  |  |  |
| O=C(CNc1ccc(Cl)c(O)c1)Nc1nc2ccc3[nH]ncc3c2s1 [compound 6] | 1500 nM |  | 255 nM | < 100 nM |  | 257 nM | 2600 nM | 4300 nM |  |
| CC(=O)Nc1cc(NC2(C(=O)Nc3nc4ccc5[nH]ncc5c4s3)CC2)ccc1F [compound 120] | 800 nM | 3300 nM |  | < 100 nM | 1900 nM | 164 nM |  | 4800 nM |  |
| CC(=O)Nc1cc(NC(C)(C)C(=O)Nc2nc3c(C(F)(F)F)cc4[nH]ncc4c3s2)ccc1F [compound 81] | 800 nM | 1100 nM | 377 nM | < 100 nM | 1300 nM | 444 nM | 4200 nM | 2400 nM | 4700 nM |
| CCC(=O)Nc1cc(NC2(C(=O)Nc3nc4ccc5[nH]ncc5c4s3)CC2)ccc1F [compound 121] | 500 nM | 3400 nM |  | < 100 nM | 2200 nM | 307 nM |  | 4800 nM | 4600 nM |
| CC(C)(Nc1ccc(Cl)c(C(=O)NCCCC(=O)O)c1)C(=O)Nc1nc2c(C(F)(F)F)cc3[nH]ncc3c2s1 [compound 144] | 3300 nM |  | 297 nM |  |  | 88 nM |  |  |  |
| O=C(Nc1nc2ccc3[nH]ncc3c2s1)C(CO)Nc1ccc(Cl)cc1 (centres unmarked) [compound 132] | 600 nM | 1400 nM | 379 nM | < 100 nM | 1700 nM |  | 1900 nM | 1400 nM | 3700 nM |
| CC(=O)Nc1cc(NC(C)(C)C(=O)Nc2nc3c(C(F)(F)F)cc4[nH]ncc4c3s2)ccc1Cl [compound 53] | 1300 nM | 1500 nM | 420 nM | 300 nM | 2400 nM | 227 nM | 4000 nM |  | 4700 nM |
| CC(C)(Nc1ccc(Cl)cc1)C(=O)Nc1nc2ccc3[nH]ncc3c2s1 [compound 35] | 700 nM | 2500 nM |  | < 100 nM |  | 428 nM |  |  |  |
| CCOC(=O)c1cc(NC2(C(=O)Nc3nc4ccc5[nH]ncc5c4s3)CC2)ccc1Cl [compound 118] | 2000 nM |  |  | < 100 nM |  | 236 nM |  |  |  |
| CNC(=O)c1cc(NC(C)(C)C(=O)Nc2nc3c(C(F)(F)F)cc4[nH]ncc4c3s2)ccc1Cl [compound 55] | 300 nM | 900 nM | 73 nM | < 100 nM | 800 nM | 185 nM | 3200 nM | 2700 nM | 4100 nM |
| CC(=O)Nc1cc(NC(C)(C)C(=O)Nc2nc3ccc4[nH]ncc4c3s2)ccc1Cl [compound 128] | 900 nM | 1700 nM |  | < 100 nM | 1100 nM | 39 nM | 4600 nM | 3500 nM | 3200 nM |
| O=C(Nc1nc2ccc3[nH]ncc3c2s1)C1(Nc2ccc(Cl)cc2)CC1 [compound 117] | 500 nM | 2200 nM | 358 nM | < 100 nM | 2800 nM | 317 nM | 2500 nM | 2700 nM |  |
| CC(C)(Nc1ccc(Cl)c(O)c1)C(=O)Nc1nc2c(C(F)(F)F)cc3[nH]ncc3c2s1 [compound 95] | 400 nM | 1100 nM | 105 nM | 100 nM | 1200 nM | 340 nM |  |  | 4600 nM |
| CC(C)(Nc1cccc(O)c1)C(=O)Nc1nc2ccc3[nH]ncc3c2s1 [compound 33] | 400 nM | 1700 nM | 115 nM | < 100 nM | 3600 nM | 29 nM | 2000 nM | 2700 nM | 4500 nM |
| CCNC(=O)c1cc(NC(C)(C)C(=O)Nc2nc3c(C(F)(F)F)cc4[nH]ncc4c3s2)ccc1F [compound 58] | 500 nM | 900 nM | 186 nM | 300 nM | 1300 nM |  | 4700 nM |  | 4000 nM |
| CCC(=O)Nc1cc(NC(C)(C)C(=O)Nc2nc3ccc4[nH]ncc4c3s2)ccc1Cl [compound 129] | 800 nM | 2600 nM |  | < 100 nM | 2700 nM | 113 nM |  | 4800 nM |  |
| CC(C)(Nc1cccc(S(N)(=O)=O)c1)C(=O)Nc1nc2c(C(F)(F)F)cc3[nH]ncc3c2s1 [compound 82] | 200 nM | 400 nM | 20 nM | < 100 nM | 400 nM | 14 nM | 2100 nM | 900 nM | 2500 nM |
| CC(C)(Nc1ccc(Cl)c(C(N)=O)c1)C(=O)Nc1nc2c(C(F)(F)F)cc3[nH]ncc3c2s1 [compound 135] | 300 nM | 500 nM | 83 nM | < 100 nM | 900 nM | 40 nM | 1600 nM | 1500 nM | 4100 nM |
| CCNC(=O)c1cc(NC(C)(C)C(=O)Nc2nc3c(C(F)(F)F)cc4[nH]ncc4c3s2)ccc1Cl [compound 60] | 300 nM | 900 nM | 73 nM | 300 nM | 1500 nM | 163 nM | 4500 nM |  | 4400 nM |
| CC(C)(Nc1ccc(Cl)c(C(=O)NC2CC2)c1)C(=O)Nc1nc2c(C(F)(F)F)cc3[nH]ncc3c2s1 [compound 75] | 500 nM | 1100 nM | 128 nM | < 100 nM | 2000 nM | 472 nM | 3600 nM |  | 3900 nM |
| CC(=O)Nc1cc(NCC(=O)Nc2nc3ccc4[nH]ncc4c3s2)ccc1Cl [compound 16] | 1200 nM | 3200 nM |  | < 100 nM | 3200 nM | 278 nM | 4400 nM |  | 4400 nM |
| CC(C)(Nc1ccc(Cl)c(C(=O)NCC(N)=O)c1)C(=O)Nc1nc2c(C(F)(F)F)cc3[nH]ncc3c2s1 [compound 85] | 300 nM | 1300 nM | 1.8 nM | < 100 nM | 1200 nM | 71 nM | 2500 nM | 1800 nM | 1800 nM |
